Test results taken from doi:10.1101/2023.10.20.563248v1 (biorxiv, 2023).

Legend:
[1] = target: MST4 (full-length, NanoLuc fusion) (Homo sapiens, UniProt Q9P289); assay: NanoBRET tracer displacement, HEK293T; type: cell-based
LIMK1 = LIMK1 (Homo sapiens, UniProt P53667); assay: NanoBRET tracer displacement, HEK293T; type: cell-based; settings: intact cells; […] °C, […] h; competitive with tracer
LIMK2 = LIMK2 (Homo sapiens, UniProt P53671); assay: NanoBRET tracer displacement, HEK293T; type: cell-based
FGR = FGR (Homo sapiens, UniProt P09769); settings: 1 µM; inhibitor
CLK2 = CLK2 (Homo sapiens, UniProt P49760); settings: 1 µM; inhibitor
Chain of CLK2 (P49760 whole entry): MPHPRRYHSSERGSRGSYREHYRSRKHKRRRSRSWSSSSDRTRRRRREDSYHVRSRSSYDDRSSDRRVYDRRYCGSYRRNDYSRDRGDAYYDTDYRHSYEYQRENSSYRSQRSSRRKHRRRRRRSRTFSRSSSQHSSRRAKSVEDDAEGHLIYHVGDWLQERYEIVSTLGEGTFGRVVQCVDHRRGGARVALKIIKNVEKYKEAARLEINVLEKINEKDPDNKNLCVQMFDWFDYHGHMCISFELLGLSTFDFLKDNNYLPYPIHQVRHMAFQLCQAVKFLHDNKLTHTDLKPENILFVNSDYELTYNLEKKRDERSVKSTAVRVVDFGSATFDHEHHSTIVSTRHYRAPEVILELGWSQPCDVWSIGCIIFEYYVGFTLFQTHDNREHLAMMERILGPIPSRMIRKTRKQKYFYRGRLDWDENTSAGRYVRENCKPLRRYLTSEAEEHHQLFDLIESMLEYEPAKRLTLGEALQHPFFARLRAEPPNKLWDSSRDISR

GRK3 = GRK3 (Homo sapiens, UniProt P35626); settings: 1 µM; inhibitor
CSF1R = CSF1R (Homo sapiens, UniProt P07333); settings: 1 µM; inhibitor
MARK4 = MARK4 (Homo sapiens, UniProt Q96L34); settings: 1 µM; inhibitor
PKCnu = PKCnu (Homo sapiens, UniProt O94806); settings: 1 µM; inhibitor
Chain of PKCnu (O94806 whole entry): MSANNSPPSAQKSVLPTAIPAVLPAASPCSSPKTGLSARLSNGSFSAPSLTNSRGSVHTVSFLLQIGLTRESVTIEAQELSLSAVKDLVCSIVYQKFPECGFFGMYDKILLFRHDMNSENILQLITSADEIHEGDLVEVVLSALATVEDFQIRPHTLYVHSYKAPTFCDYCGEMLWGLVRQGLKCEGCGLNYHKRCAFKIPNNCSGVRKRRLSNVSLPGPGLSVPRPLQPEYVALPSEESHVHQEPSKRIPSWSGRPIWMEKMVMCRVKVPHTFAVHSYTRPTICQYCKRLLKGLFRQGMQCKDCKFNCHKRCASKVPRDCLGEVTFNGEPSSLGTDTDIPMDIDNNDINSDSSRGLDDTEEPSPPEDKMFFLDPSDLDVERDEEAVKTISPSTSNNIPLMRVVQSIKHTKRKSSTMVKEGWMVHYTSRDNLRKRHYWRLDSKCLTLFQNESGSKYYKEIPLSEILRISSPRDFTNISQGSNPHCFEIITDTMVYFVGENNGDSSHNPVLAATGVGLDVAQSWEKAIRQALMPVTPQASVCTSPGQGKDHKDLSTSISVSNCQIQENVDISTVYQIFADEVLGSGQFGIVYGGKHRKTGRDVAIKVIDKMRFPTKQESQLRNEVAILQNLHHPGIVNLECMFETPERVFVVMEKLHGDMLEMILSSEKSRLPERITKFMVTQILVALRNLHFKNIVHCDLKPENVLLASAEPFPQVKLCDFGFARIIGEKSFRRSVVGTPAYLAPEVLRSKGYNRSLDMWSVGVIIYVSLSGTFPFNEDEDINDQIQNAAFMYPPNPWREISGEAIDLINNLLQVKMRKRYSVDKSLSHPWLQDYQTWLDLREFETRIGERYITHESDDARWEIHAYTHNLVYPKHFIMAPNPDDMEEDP

DAPK1 = DAPK1 (Homo sapiens, UniProt P53355); settings: 1 µM; inhibitor
AKT3 = AKT3 (Homo sapiens, UniProt Q9Y243); settings: 1 µM; inhibitor
CK1g1 = CK1g1 (Homo sapiens, UniProt Q9HCP0); settings: 1 µM; inhibitor
RIPK4 = RIPK4 (Homo sapiens, UniProt P57078); settings: 1 µM; inhibitor
CDK5/p35NCK = CDK5/p35NCK (Homo sapiens, UniProt Q00535); settings: 1 µM; inhibitor
CDK20/CycT1 = CDK20/CycT1 (Homo sapiens, UniProt Q8IZL9); settings: 1 µM; inhibitor
EPHA4 = EPHA4 (Homo sapiens, UniProt P54764); settings: 1 µM; inhibitor
EPHA8 = EPHA8 (Homo sapiens, UniProt P29322); settings: 1 µM; inhibitor
NEK2 = NEK2 (Homo sapiens, UniProt P51955); settings: 1 µM; inhibitor
MKNK2 = MKNK2 (Homo sapiens, UniProt Q9HBH9); settings: 1 µM; inhibitor
CAMK2D = CAMK2D (Homo sapiens, UniProt Q13557); settings: 1 µM; inhibitor
BRSK1 = BRSK1 (Homo sapiens, UniProt Q8TDC3); settings: 1 µM; inhibitor
FYN = FYN (Homo sapiens, UniProt P06241); settings: 1 µM; inhibitor
ZAP70 = ZAP70 (Homo sapiens, UniProt P43403); settings: 1 µM; inhibitor
PKCb = PKCb (Homo sapiens, UniProt P05771); settings: 1 µM; inhibitor
Chain of PKCb (P05771 whole entry): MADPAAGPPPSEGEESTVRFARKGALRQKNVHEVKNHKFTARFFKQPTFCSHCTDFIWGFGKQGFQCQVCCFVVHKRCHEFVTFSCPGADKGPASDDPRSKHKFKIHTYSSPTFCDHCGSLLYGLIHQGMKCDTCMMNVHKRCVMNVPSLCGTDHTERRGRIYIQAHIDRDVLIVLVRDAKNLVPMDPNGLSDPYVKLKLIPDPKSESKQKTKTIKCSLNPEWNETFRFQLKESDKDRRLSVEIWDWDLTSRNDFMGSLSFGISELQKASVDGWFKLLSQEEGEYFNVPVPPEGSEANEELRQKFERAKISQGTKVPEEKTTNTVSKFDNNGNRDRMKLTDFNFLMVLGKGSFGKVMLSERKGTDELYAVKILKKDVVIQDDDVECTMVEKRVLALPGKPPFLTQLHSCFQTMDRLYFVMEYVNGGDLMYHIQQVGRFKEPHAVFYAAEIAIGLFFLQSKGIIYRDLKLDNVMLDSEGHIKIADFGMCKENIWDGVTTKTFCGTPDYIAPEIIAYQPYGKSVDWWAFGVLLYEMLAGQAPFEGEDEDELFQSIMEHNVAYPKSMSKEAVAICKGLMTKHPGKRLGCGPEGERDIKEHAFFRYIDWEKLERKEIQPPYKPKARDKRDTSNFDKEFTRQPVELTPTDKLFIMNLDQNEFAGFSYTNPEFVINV

PKCbeta2 = PKCbeta2 (Homo sapiens, UniProt P05771); settings: 1 µM; inhibitor
Chain of PKCbeta2 (P05771 whole entry): as above

LTK = LTK (Homo sapiens, UniProt P29376); assay: biochemical; settings: read-out: 21c Remaining activity, percent of control [%]
Chain of LTK (P29376 whole entry): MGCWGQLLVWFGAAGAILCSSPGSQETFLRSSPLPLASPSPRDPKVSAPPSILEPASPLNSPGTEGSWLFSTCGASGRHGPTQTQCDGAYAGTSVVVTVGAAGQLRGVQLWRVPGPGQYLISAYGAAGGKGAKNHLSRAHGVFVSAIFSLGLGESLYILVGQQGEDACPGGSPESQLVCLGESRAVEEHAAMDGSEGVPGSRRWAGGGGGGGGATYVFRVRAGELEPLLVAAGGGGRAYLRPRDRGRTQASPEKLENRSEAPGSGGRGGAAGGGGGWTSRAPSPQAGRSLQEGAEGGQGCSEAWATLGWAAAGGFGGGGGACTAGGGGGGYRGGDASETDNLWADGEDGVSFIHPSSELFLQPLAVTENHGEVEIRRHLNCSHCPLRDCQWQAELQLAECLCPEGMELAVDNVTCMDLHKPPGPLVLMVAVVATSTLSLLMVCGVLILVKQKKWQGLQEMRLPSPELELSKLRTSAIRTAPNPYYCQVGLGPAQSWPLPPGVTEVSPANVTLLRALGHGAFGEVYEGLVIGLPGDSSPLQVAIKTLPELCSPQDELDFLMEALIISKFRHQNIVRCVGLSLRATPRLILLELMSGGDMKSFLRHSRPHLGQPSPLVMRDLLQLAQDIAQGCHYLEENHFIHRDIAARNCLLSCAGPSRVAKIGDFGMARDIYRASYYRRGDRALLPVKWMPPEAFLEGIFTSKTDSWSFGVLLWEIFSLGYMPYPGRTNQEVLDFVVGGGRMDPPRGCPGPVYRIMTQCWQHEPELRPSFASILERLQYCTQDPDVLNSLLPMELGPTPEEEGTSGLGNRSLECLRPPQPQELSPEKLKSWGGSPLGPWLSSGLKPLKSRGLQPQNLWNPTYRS

DYRK1B = DYRK1B (Homo sapiens, UniProt Q9Y463); assay: biochemical; settings: read-out: 21c Remaining activity, percent of control [%]
MST3 = MST3 (Homo sapiens, UniProt Q9Y6E0); assay: biochemical; settings: 1 µM; inhibitor
Chain of MST3 (Q9Y6E0 whole entry): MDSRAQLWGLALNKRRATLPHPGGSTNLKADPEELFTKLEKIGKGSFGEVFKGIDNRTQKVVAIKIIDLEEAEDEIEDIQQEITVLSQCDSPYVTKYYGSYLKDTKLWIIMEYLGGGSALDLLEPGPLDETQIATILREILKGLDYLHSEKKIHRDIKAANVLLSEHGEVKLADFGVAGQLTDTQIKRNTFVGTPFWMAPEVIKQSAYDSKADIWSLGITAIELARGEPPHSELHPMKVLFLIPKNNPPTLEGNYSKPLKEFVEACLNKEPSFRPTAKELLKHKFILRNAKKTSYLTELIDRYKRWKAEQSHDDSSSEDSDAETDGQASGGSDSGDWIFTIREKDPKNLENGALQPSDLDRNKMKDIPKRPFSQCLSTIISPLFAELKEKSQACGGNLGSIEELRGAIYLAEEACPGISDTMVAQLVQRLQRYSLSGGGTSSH

STK33 = STK33 (Homo sapiens, UniProt Q9BYT3); assay: biochemical; settings: read-out: 21c Remaining activity, percent of control [%]
Chain of STK33 (Q9BYT3 whole entry): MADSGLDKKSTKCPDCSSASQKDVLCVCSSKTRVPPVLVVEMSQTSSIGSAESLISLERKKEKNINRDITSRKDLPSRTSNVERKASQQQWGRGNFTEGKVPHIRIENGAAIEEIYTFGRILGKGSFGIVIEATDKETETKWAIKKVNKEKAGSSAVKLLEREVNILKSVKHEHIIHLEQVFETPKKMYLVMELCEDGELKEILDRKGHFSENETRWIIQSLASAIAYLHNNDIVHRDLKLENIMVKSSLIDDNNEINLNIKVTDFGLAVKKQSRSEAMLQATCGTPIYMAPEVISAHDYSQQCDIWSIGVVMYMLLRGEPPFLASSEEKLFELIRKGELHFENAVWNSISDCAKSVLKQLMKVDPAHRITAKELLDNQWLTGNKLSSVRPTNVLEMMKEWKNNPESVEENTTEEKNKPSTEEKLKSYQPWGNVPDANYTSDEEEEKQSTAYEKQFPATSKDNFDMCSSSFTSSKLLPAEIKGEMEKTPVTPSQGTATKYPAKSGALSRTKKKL

TTBK1 = TTBK1 (Homo sapiens, UniProt Q5TCY1); assay: biochemical; settings: read-out: 21c Remaining activity, percent of control [%]

Chain of MST4 (full-length, NanoLuc fusion) (Q9P289 whole entry, the tested form may be a part): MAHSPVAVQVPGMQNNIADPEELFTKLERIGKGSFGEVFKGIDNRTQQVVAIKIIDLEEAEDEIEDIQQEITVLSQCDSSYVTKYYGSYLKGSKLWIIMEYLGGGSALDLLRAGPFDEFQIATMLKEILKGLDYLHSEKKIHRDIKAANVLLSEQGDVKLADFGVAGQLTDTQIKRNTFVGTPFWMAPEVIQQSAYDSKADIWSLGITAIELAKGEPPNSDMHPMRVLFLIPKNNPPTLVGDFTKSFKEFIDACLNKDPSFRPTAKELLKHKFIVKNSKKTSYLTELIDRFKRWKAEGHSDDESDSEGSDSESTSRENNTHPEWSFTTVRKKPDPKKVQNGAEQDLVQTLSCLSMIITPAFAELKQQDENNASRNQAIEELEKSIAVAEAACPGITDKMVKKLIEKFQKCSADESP

O=C1NCCCCCNc2nc(c3ccccc3n2)Nc2cc1[nH]n2 [21c, (Z)-3^1H-2,5,11-triaza-1(4,2)-quinazolina-3(3,5)-pyrazolacycloundecaphan-4-one]
EC50 [1]: 1400 nM
EC50 (LIMK1): 5.67 ± 1.02 µM
EC50 (LIMK2): 1400 nM
21c Remaining activity, percent of control [%] (FGR): 75.3%
21c Remaining activity, percent of control [%] (CLK2): 64.6%
21c Remaining activity, percent of control [%] (GRK3): 97.4%
21c Remaining activity, percent of control [%] (CSF1R): 90.9%
21c Remaining activity, percent of control [%] (MARK4): 100.1%
21c Remaining activity, percent of control [%] (PKCnu): 78.1%
21c Remaining activity, percent of control [%] (DAPK1): 94.0%
21c Remaining activity, percent of control [%] (AKT3): 102.5%
21c Remaining activity, percent of control [%] (CK1g1): 102.2%
21c Remaining activity, percent of control [%] (RIPK4): 101.1%
21c Remaining activity, percent of control [%] (CDK5/p35NCK): 96.6%
21c Remaining activity, percent of control [%] (CDK20/CycT1): 89.1%
21c Remaining activity, percent of control [%] (EPHA4): 67.5%
21c Remaining activity, percent of control [%] (EPHA8): 112.4%
21c Remaining activity, percent of control [%] (NEK2): 93.5%
21c Remaining activity, percent of control [%] (MKNK2): 105.8%
21c Remaining activity, percent of control [%] (CAMK2D): 95.0%
21c Remaining activity, percent of control [%] (BRSK1): 112.9%
21c Remaining activity, percent of control [%] (FYN): 56.6%
21c Remaining activity, percent of control [%] (ZAP70): 108.6%
21c Remaining activity, percent of control [%] (PKCb): 82.5%
21c Remaining activity, percent of control [%] (PKCbeta2): 100.8%
remaining activity at 1 µM (LTK): 92%
remaining activity at 1 µM (DYRK1B): 79.7%
21c Remaining activity, percent of control [%] (MST3): 13.5%
remaining activity at 1 µM (STK33): 88.7%
remaining activity at 1 µM (TTBK1): 112%
